Measurements as given in PMC8216447, “Factors affecting the buccal delivery of deformable nanovesicles based on insulin–phospholipid complex: an in vivo investigation” (Drug Delivery, 2020).

Test system: normal rabbits
Assay: In vivo hypoglycemic effect, rabbit esophageal ligation model
Conditions: insulin solution 3 mg/mL
Experimental: The relative pharmacological bioactivity of insulin delivered via the transmucosal route by IPC-DNVs in different drug doses, delivery sites, ligation times, drug concentrations, sizes, and deformabilities was evaluated in normal rabbits by assessing the hypoglycemic effects. […] After fasting for 2 h, the rabbits were weighed and anesthetized with pentobarbital (2%, 50 mg/kg) through the ear margin vein. During anesthesia, the animals were restrained in a supine position to a board. The esophagus was surgically ligated to prevent swallowing. The drug solution for buccal administration (oral mucosa) was divided into four parts; two parts for administration via sublingual mucosa, and two parts for administration via left and right buccal mucosa. The sublingual mucosa and the buccal mucosa groups were administered only to the sublingual mucosa or buccal mucosa. After administration of the drug solution for 30 min (except the group with ligation time of 15 min), the esophagus was untied, and the response of the animals was observed. Blood samples were collected from the ear veins at predetermined time intervals (0, 0.5, 1, 1.5, 2, 2.5, 3, 3.5, 4, 4.5, 5, and 6 h) after DNVs administration and blood glucose levels were measured using a Blood Analyzer (ONETOUCH Ultra; Johnson & Johnson, New Brunswick, NJ, USA). […]

“Recombinant human insulin [insulin solution]” was tested, and the hypoglycemic effect (1 IU/kg, subcutaneous administration) was “evident” and the “glucose levels within 6 h after buccal administration” value (10 IU/kg, buccal administration (control)) was “barely changed”.
